Common to all, as to type: in vivo
For test [1], the system named is Heliothis virescens larvae. The test is described as follows: Spray action on transgenic cotton plants against Heliothis virescens larvae.
Text: (§1) Young transgenic cotton plants which express the δ-endotoxin CryIIIA are sprayed with an aqueous emulsion spray mixture comprising 100, 50, 10, 5, 1 ppm of emamectin-benzoate respectively. After the spray coating has dried on, the cotton plants are populated with 10 adult Anthonomus grandis, 10 Spodoptera littoralis larvae or 10 Heliothis virescens larvae respectively and introduced into a plastic container. Evaluation takes place 3 to 10 days later. The percentage reduction in population, or the percentage reduction in feeding damage (% action), is determined by comparing the number of dead beetles and the feeding damage on the transgenic cotton plants with that of non-transgenic cotton plants which have been treated with an emulsion spray mixture comprising emamectin-benzoate and conventional CryIIIA-toxin at a concentration of in each case 100, 50, 10, 5, 1 ppm respectively.
as §1, with “abamectin” for “emamectin-benzoate”
as §1, with “spinosad” for “emamectin-benzoate”
as §1, with “δ-endotoxin CryIa(c)” for “δ-endotoxin CryIIIA”, “of spinosad” for “of emamectin-benzoate”, “comprising spinosad” for “comprising emamectin-benzoate”
(§2) Young transgenic cotton plants which express the δ-endotoxin CryIa(c) are sprayed with an aqueous emulsion spray mixture comprising 100, 50, 10, 5, 1 ppm of abamectin respectively. After the spray coating has dried on, the cotton plants are populated with 10 adult Anthonomus grandis, 10 Spodoptera littoralis larvae or 10 Heliothis virescens larvae respectively and introduced into a plastic container. Evaluation takes place 3 to 10 days later. […]

The next test relates to Ostrinia nubilalis. As to the kind of experiment: Plot test, maize cv. KnockOut vs conventional maize, natural infestation with Ostrinia nubilalis. The conditions noted are these: for control of Ostrinia nubilalis on plot (a): plot (a) maize cv. KnockOut, spray 200, 100, 50, 10, 5, 1 ppm, evaluation 6 days later; for control level on plot (b): plot (b) conventional maize, also treated with 200, 100, 50, 10, 5, 1 ppm of the endotoxin expressed by KnockOut, 6 days. The method, then: (§3) A plot (a) planted with maize cv. KnockOut® and an adjacent plot (b) of the same size which is planted with conventional maize, both showing natural infestation with Ostrinia nubilalis, Spodoptera spp. or Heliothis, are sprayed with an aqueous emulsion spray mixture comprising 200, 100, 50, 10, 5, 1 ppm of spinosad. Immediately afterwards, plot (b) is treated with an emulsion spray mixture comprising 200, 100, 50, 10, 5, 1 ppm of the endotoxin expressed by KnockOut®. Evaluation takes place 6 days later. The percentage reduction in population (% action) is determined by comparing the number of dead pests on the plants of plot (a) with that on the plants of plot (b).
as §3, with “sp” for “spp.”, “abamectin.” for “spinosad.”
as §3, with “sp” for “spp.”, “emamectin benzoate.” for “spinosad.”

The next test relates to Spodoptera spp. As to the kind of experiment: Plot test, maize cv. KnockOut vs conventional maize, natural infestation with Spodoptera spp. The conditions noted are these: for control of Spodoptera spp. on plot (a): plot (a) maize cv. KnockOut, spray 200, 100, 50, 10, 5, 1 ppm, evaluation 6 days later; for control level on plot (b): plot (b) conventional maize, also treated with 200, 100, 50, 10, 5, 1 ppm of the endotoxin expressed by KnockOut, 6 days. The protocol:
as §3
as §3, with “sp” for “spp.”, “abamectin.” for “spinosad.”
as §3, with “sp” for “spp.”, “emamectin benzoate.” for “spinosad.”

Test [2] deals with Spodoptera littoralis larvae. The test is described as follows: Spray action on transgenic cotton plants against Spodoptera littoralis larvae.
Text: as §1
as §1, with “abamectin” for “emamectin-benzoate”
as §1, with “spinosad” for “emamectin-benzoate”
as §1, with “δ-endotoxin CryIa(c)” for “δ-endotoxin CryIIIA”, “of spinosad” for “of emamectin-benzoate”, “comprising spinosad” for “comprising emamectin-benzoate”
as §2

Test [3] deals with Anthonomus grandis adults. The test is described as follows: Spray action on transgenic cotton plants against Anthonomus grandis adults.
Text: as §1
as §1, with “abamectin” for “emamectin-benzoate”
as §1, with “spinosad” for “emamectin-benzoate”
as §1, with “δ-endotoxin CryIa(c)” for “δ-endotoxin CryIIIA”, “of spinosad” for “of emamectin-benzoate”, “comprising spinosad” for “comprising emamectin-benzoate”
as §2

In the next test the test system is Heliothis spp. The test is described as follows: Plot test, maize cv. KnockOut vs conventional maize, natural infestation with Heliothis spp. The following applies: for control of Heliothis on plot (a): plot (a) maize cv. KnockOut, spray 200, 100, 50, 10, 5, 1 ppm, evaluation 6 days later; for control level on plot (b): plot (b) conventional maize, also treated with 200, 100, 50, 10, 5, 1 ppm of the endotoxin expressed by KnockOut, 6 days. The protocol:
as §3
as §3, with “sp” for “spp.”, “abamectin.” for “spinosad.”
as §3, with “sp” for “spp.”, “emamectin benzoate.” for “spinosad.”

Setting [4] is: non-transgenic cotton, spray mixture with conventional CryIIIA-toxin, each 100, 50, 10, 5, 1 ppm (comparison to CryIIIA cotton).
[5] abbreviates: non-transgenic cotton, spray mixture with conventional CryIIIA-toxin, each 100, 50, 10, 5, 1 ppm (comparison to CryIa(c) cotton).
Where [6] appears, read: transgenic cotton expressing δ-endotoxin CryIIIA, spray 100, 50, 10, 5, 1 ppm, evaluation 3 to 10 days.
[7] abbreviates: transgenic cotton expressing δ-endotoxin CryIa(c), spray 100, 50, 10, 5, 1 ppm, evaluation 3 to 10 days.

Turning to abamectin, the “control of the tested insects (% action: reduction in population or feeding damage)” value in test [1] (setting [4]) was “insufficient”; in test [1] (setting [5]), “insufficient”; in test [1] (setting [6]), “superior”; in test [1] (setting [7]), “superior”; in test [2] (setting [4]) it was “insufficient”; in test [2] (setting [5]), “insufficient”. In addition, the “control of the tested insects (% action: reduction in population or feeding damage)” value in test [2] (setting [6]) is listed as “superior”; in test [2] (setting [7]) it was “superior”; in test [3] (setting [4]) it was “insufficient”; in test [3] (setting [5]), “insufficient”; in test [3] (setting [6]) it was “superior”; in test [3] (setting [7]), “superior”. In addition, the “control of Ostrinia nubilalis on plot (a)” value in the test on Ostrinia nubilalis is given as “Improved control”. The “control level on plot (b)” value with Ostrinia nubilalis, in the test with Spodoptera spp. and with Heliothis spp. was ≤ 80% each time. The “control of Spodoptera spp. on plot (a)” value with Spodoptera spp. is on record as “Improved control”. In addition, the “control of Heliothis on plot (a)” value with Heliothis spp. was “Improved control”.
For the substance emamectin-benzoate, the “control of the tested insects (% action: reduction in population or feeding damage)” value in test [1] (setting [4]) is recorded as “insufficient”; in test [1] (setting [5]), “insufficient”; in test [1] (setting [6]) it was “superior”; in test [1] (setting [7]), “superior”; in test [2] (setting [4]) it was “insufficient”; in test [2] (setting [5]) it was “insufficient”. The “control of the tested insects (% action: reduction in population or feeding damage)” value in test [2] (setting [6]) was “superior”; in test [2] (setting [7]) it was “superior”; in test [3] (setting [4]), “insufficient”; in test [3] (setting [5]), “insufficient”; in test [3] (setting [6]), “superior”; in test [3] (setting [7]) it was “superior”. For the same substance, the “control of Ostrinia nubilalis on plot (a)” value in the test with Ostrinia nubilalis is listed as “Improved control”. Also, the “control level on plot (b)” value with Ostrinia nubilalis, in the test on Spodoptera spp. and in the test on Heliothis spp. was ≤ 80% each time. For the same substance, in the test with Spodoptera spp., the “control of Spodoptera spp. on plot (a)” value is given as “Improved control”. Moreover, the “control of Heliothis on plot (a)” value in the test with Heliothis spp. was “Improved control”.
With spinosad, the “control of the tested insects (% action: reduction in population or feeding damage)” value in test [1] (setting [4]) is on record as “insufficient”; in test [1] (setting [5]) it was “insufficient”; in test [1] (setting [6]) it was “superior”; in test [1] (setting [7]) it was “superior”; in test [2] (setting [4]), “insufficient”; in test [2] (setting [5]), “insufficient”. For the same substance, the “control of the tested insects (% action: reduction in population or feeding damage)” value in test [2] (setting [6]) is “superior”; in test [2] (setting [7]) it was “superior”; in test [3] (setting [4]), “insufficient”; in test [3] (setting [5]), “insufficient”; in test [3] (setting [6]), “superior”; in test [3] (setting [7]) it was “superior”. Moreover, the “control of Ostrinia nubilalis on plot (a)” value with Ostrinia nubilalis is given as “Improved control”. Moreover, the “control level on plot (b)” value in the test on Ostrinia nubilalis, with Spodoptera spp. and in the test on Heliothis spp. was ≤ 80% each time. Moreover, the “control of Spodoptera spp. on plot (a)” value with Spodoptera spp. is given as “Improved control”. Moreover, the “control of Heliothis on plot (a)” value with Heliothis spp. was “Improved control”.

Values taken from patent US6875727B2, “Use of macrolides in pest control” (Syngenta Crop Protection, Inc., priority 1998, dated 2005).
